Drawing on patent publication US20100216795A1, “TNIK INHIBITOR AND THE USE” (priority 2008, published 2010), this text covers IC50 for one molecule.

A value given as a limit tells only on which side of the number the result lay.

Common to all, as to assay: Selectivity profiling, QuickScout STK Screening Panel
Common to all, as to type: biochemical

Experiment [1] has as its target T1, AKT1 (Homo sapiens, UniProt P31749).
T1 construct: purchased Carna Biosciences
As to the method: (§1) The inhibitory effects of Compound 1 against 20 tyrosine kinases and 30 serine/threonine kinases were investigated using QuickScout™ TK and STK Screening Panel (Carna Biosciences, Kobe Japan). […] The results reveal that Compound 1 inhibits TNIK_N more potently (IC50; 9 nM) than the other 50 kinases.

The target in experiment [2] is T2, AMPKa1/b1/g1 (Homo sapiens, UniProt P54619+Q13131+Q9Y478).
T2 construct: purchased Carna Biosciences
As to the method: as §1

Experiment [3] deals with T3, AurA (Homo sapiens, UniProt O14965).
T3 construct: purchased Carna Biosciences
T3 sequence (O14965 whole entry): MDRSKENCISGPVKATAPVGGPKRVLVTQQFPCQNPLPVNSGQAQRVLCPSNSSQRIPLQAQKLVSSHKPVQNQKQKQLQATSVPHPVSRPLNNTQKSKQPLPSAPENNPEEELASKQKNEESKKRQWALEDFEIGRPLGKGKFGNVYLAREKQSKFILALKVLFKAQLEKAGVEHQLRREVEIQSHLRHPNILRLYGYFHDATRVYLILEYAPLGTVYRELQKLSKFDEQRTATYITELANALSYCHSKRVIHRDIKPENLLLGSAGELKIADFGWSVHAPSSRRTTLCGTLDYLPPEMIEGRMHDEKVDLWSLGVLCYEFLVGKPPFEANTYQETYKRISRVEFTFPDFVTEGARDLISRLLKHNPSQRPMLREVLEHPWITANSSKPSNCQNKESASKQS
On the procedure: as §1

Experiment [4] deals with T4, CDK2 (Homo sapiens, UniProt P24941).
T4 construct: purchased Carna Biosciences
On the procedure: as §1

Experiment [5] concerns the target T5, CaMK4 (Homo sapiens, UniProt Q16566).
T5 construct: purchased Carna Biosciences
On the procedure:
as §1

In experiment [6] the target is T6, DAPK1 (Homo sapiens, UniProt P53355).
T6 construct: purchased Carna Biosciences
T6 sequence (P53355 whole entry): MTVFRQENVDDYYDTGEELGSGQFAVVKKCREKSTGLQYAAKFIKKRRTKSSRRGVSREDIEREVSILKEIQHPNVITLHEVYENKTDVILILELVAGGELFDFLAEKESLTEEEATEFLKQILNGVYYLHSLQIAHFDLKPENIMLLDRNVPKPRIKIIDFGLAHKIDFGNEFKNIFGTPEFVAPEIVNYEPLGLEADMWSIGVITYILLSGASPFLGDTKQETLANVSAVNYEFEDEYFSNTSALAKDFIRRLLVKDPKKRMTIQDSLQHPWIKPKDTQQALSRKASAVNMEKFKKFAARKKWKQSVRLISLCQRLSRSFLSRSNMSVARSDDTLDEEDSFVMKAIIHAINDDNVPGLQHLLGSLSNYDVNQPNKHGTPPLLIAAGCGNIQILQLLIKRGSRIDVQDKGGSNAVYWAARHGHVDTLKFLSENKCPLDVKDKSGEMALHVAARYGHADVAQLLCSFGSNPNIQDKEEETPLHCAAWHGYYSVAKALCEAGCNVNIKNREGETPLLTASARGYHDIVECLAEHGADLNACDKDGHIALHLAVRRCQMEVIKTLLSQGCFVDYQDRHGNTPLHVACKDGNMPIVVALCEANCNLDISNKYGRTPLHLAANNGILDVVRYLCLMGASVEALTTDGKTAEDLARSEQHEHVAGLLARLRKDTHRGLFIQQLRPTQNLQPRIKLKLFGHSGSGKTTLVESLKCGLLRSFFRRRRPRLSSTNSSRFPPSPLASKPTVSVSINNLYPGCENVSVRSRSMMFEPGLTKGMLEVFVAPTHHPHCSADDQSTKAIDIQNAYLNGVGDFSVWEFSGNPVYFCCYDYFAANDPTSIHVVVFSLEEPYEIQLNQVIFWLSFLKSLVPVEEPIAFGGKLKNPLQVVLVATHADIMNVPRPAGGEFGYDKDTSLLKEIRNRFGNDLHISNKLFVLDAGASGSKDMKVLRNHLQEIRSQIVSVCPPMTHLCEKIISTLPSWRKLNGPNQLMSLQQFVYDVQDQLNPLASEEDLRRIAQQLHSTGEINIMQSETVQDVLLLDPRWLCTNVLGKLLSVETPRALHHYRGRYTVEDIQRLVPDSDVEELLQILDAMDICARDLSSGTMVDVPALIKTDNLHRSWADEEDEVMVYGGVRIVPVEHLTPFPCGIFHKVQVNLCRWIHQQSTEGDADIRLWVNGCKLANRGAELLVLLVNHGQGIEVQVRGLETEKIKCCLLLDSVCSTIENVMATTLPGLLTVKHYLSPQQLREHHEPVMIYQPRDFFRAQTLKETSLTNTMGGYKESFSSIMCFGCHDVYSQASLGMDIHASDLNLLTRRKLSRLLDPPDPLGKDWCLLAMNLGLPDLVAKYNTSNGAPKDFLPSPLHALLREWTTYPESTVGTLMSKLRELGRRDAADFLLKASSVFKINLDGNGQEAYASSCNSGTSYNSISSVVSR
As to the method:
as §1

The target of experiment [7] is T7, DYRK1B (Homo sapiens, UniProt Q9Y463).
T7 construct: purchased Carna Biosciences
T7 sequence (Q9Y463 whole entry): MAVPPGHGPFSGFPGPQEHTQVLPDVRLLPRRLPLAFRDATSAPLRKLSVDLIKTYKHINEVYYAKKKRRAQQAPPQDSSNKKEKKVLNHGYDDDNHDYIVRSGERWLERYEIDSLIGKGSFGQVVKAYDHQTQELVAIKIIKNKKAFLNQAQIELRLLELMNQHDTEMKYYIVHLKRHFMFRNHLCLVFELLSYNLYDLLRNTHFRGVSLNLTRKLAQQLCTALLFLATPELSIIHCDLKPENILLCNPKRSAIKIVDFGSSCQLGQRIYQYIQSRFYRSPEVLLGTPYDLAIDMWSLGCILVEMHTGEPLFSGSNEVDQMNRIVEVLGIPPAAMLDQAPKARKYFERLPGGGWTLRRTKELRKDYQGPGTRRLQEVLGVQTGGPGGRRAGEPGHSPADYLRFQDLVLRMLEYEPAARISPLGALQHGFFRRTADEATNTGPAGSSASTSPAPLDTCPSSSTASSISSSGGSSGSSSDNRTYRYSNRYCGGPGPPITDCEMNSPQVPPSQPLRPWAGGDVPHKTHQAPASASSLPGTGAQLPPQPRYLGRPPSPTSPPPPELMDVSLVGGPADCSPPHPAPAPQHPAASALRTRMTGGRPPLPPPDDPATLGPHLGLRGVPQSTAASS
As to the method:
as §1

Experiment [8] addresses T8, Erk2 (Homo sapiens, UniProt P28482).
T8 construct: purchased Carna Biosciences
As to the method:
as §1

Experiment [9] has as its target T9, GSK3b (Homo sapiens, UniProt P49841).
T9 construct: purchased Carna Biosciences
On the procedure:
as §1

The target of experiment [10] is T10, IRAK4 (Homo sapiens, UniProt Q9NWZ3).
T10 construct: purchased Carna Biosciences
T10 sequence (Q9NWZ3 whole entry): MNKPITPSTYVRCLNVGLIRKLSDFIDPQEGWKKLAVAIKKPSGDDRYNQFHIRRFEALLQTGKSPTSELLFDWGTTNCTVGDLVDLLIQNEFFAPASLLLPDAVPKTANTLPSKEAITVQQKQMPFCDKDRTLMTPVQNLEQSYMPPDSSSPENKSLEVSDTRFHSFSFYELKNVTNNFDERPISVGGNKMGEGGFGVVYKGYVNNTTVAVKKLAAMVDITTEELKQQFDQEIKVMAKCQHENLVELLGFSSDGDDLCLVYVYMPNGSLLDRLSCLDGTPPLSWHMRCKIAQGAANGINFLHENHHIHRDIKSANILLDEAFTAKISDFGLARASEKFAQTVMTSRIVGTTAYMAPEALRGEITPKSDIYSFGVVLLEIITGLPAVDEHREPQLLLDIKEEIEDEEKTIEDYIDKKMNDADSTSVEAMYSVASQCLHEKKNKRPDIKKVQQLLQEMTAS
As to the method:
as §1

Experiment [11] deals with T11, MAP2K1 (Homo sapiens, UniProt Q02750).
T11 construct: purchased Carna Biosciences
As to the method:
as §1

The target in experiment [12] is T12, MLK1 (Homo sapiens, UniProt P80192).
T12 construct: purchased Carna Biosciences
On the procedure: as §1

The target of experiment [13] is T13, NEK2 (Homo sapiens, UniProt P51955).
T13 construct: purchased Carna Biosciences
T13 sequence (P51955 whole entry): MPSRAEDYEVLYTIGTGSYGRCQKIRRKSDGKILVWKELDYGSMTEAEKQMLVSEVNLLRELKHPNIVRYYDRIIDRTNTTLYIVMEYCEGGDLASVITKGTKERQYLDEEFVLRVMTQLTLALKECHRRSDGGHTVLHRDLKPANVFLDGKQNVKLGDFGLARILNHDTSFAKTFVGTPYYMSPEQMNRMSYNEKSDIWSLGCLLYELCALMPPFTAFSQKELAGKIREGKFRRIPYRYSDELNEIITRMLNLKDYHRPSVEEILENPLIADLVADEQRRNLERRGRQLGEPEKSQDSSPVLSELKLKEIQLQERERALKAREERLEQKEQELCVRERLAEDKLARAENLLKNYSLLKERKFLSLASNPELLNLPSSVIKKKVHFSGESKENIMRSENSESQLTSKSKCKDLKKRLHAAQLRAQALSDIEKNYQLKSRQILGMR
As to the method: as §1

Experiment [14] concerns the target T14, PAK4 (Homo sapiens, UniProt O96013).
T14 construct: purchased Carna Biosciences
As to the method:
as §1

In experiment [15] the target is T15, PIM1 (Homo sapiens, UniProt P11309).
T15 construct: purchased Carna Biosciences
T15 sequence (P11309 whole entry): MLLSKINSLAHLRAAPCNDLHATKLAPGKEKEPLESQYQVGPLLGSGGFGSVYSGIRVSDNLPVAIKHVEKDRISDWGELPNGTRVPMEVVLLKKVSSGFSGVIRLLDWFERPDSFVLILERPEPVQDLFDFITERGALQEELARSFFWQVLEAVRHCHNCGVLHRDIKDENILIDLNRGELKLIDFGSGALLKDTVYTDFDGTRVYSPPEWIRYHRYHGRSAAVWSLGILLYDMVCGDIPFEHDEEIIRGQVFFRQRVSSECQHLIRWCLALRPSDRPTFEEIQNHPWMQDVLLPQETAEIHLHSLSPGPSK
As to the method:
as §1

Experiment [16] deals with T16, ROCK1 (Homo sapiens, UniProt Q13464).
T16 construct: purchased Carna Biosciences
On the procedure:
as §1

Experiment [17] concerns the target T17, p38a (Homo sapiens, UniProt Q16539).
T17 construct: purchased Carna Biosciences
On the procedure:
as §1

T9 sequence (P49841 whole entry): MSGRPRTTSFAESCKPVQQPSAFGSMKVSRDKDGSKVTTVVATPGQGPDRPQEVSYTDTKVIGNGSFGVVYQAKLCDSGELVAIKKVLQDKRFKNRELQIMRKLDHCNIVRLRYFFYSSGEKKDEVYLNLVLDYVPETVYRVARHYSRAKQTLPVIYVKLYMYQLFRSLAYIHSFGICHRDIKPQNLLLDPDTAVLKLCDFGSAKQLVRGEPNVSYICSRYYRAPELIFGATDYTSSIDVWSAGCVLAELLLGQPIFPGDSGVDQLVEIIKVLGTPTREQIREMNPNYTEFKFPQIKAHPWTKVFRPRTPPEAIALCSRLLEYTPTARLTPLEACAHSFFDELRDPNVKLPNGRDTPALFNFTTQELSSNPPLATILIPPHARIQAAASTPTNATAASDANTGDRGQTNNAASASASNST
T14 sequence (O96013 whole entry): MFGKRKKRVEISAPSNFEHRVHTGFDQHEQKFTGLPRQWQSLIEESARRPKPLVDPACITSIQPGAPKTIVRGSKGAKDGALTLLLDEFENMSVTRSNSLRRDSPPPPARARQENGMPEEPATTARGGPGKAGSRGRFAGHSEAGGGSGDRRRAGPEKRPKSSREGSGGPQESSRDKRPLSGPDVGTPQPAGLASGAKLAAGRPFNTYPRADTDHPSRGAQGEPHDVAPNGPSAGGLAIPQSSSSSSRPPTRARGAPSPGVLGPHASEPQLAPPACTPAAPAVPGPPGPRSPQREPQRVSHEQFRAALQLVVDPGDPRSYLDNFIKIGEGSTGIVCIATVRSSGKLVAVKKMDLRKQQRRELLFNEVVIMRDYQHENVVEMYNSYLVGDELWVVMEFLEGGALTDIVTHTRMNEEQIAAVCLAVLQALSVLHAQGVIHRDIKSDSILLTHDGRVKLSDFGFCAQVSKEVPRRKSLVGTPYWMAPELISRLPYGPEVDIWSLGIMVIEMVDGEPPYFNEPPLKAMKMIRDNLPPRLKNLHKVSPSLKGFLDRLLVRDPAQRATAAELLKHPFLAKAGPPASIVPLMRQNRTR

With `CC(=O)Nc1ccc(C(=O)Nc2sc(Nc3ccccc3)nc2C(N)=O)cc1` [Compound 1, 5-(4-acetamidobenzamido)-2-(phenylamino)thiazole-4-carboxamide], the IC50 in [1] was more than 300 nM; in experiment [2] it was more than 300 nM; in experiment [3] it was 130 nM; in [4], more than 300 nM; in experiment [5] it was more than 300 nM; in experiment [6], more than 300 nM. The IC50 in [7] is more than 300 nM; in experiment [8] it was more than 300 nM; in [9], 120 nM; in experiment [10] it was more than 300 nM; in [11], more than 300 nM; in [12] it was 18 nM. For the same molecule, the IC50 in [13], in [14], in experiment [15], in experiment [16] and in experiment [17] was more than 300 nM in each case.
